From PubChem BioAssay AID1918944 (Molecular Pharmacology Branch, DTP, NCI, 2023)
pIC50: −log10 of the molar value.

System: 786-0 complex spheroid viability
Assay: Anticancer human tumor 786-0 cell line growth inhibition;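 note: spheroids exposed to agents for seven days before readout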
Settings: for pIC50: curve of first compound; for viability, T/C: stronger effect = lower value
In short: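 Complex spheroids of tumor cells with HUVEC and human MSCs, exposed to iadademstat combined with other agents. Each agent tested in half-log steps from near clinical Cmax (else 10 microM top), DMSO ≤0.25%.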

[1] = second compound 0.1 µM, first compound 0.00949 µM
[2] = second compound 0.1 µM, first compound 0.03 µM
[3] = second compound 0.1 µM, first compound 0.0949 µM
[4] = second compound 0.1 µM, first compound 0.3 µM
[5] = second compound 0.316 µM, first compound 0.00949 µM
[6] = second compound 0.316 µM, first compound 0.03 µM
[7] = second compound 0.316 µM, first compound 0.0949 µM
[8] = second compound 0.316 µM, first compound 0.3 µM
[9] = second compound 1 µM, first compound 0.00949 µM
[10] = second compound 1 µM, first compound 0.03 µM
[11] = second compound 1 µM, first compound 0.0949 µM
[12] = second compound 1 µM, first compound 0.3 µM
[13] = second compound 3.16 µM, first compound 0.00949 µM
[14] = second compound 3.16 µM, first compound 0.03 µM
[15] = second compound 3.16 µM, first compound 0.0949 µM
[16] = second compound 3.16 µM, first compound 0.3 µM
[17] = second compound 10 µM, first compound 0.00949 µM
[18] = second compound 10 µM, first compound 0.03 µM
[19] = second compound 10 µM, first compound 0.0949 µM
[20] = second compound 10 µM, first compound 0.3 µM

In the case of Nc1ccn(C2OC(CO)C(O)C2(F)F)c(=O)n1 (stereo not given) + NC1CCC(NC2CC2c2ccccc2)CC1, the pIC50 (second compound 0.1 µM) was greater than 9.02, the pIC50 (second compound 0.316 µM) was greater than 9.02 and the pIC50 (second compound 1 µM) was greater than 9.02. The pIC50 (second compound 3.16 µM) was greater than 9.02, the pIC50 (second compound 10 µM) was greater than 9.02 and the viability, T/C (second compound 0.1 µM, first compound 0.000949 µM) was 4.09%. The viability, T/C (second compound 0.1 µM, first compound 0.003 µM) was 2.17%, the viability, T/C [1] was 2.51% and the viability, T/C [2] was 5.79%. The viability, T/C [3] was 3.38%, the viability, T/C [4] was 3.63% and the viability, T/C (second compound 0.316 µM, first compound 0.000949 µM) was 4.14%. It also gave a viability, T/C (second compound 0.316 µM, first compound 0.003 µM) of 2.73%, a viability, T/C [5] of 2.97% and a viability, T/C [6] of 3.95%. It also gave a viability, T/C [7] of 3.04%, a viability, T/C [8] of 3.93% and a viability, T/C (second compound 1 µM, first compound 0.000949 µM) of 4.18%. The viability, T/C (second compound 1 µM, first compound 0.003 µM) was 4.49%, the viability, T/C [9] was 3.51% and the viability, T/C [10] was 3.28%. It also gave a viability, T/C [11] of 5.66%, a viability, T/C [12] of 4.13% and a viability, T/C (second compound 3.16 µM, first compound 0.000949 µM) of 5.7%. For the same molecule, the viability, T/C (second compound 3.16 µM, first compound 0.003 µM) was 3.25%, the viability, T/C [13] was 3.12% and the viability, T/C [14] was 3.88%. It also gave a viability, T/C [15] of 3.97%, a viability, T/C [16] of 4.18% and a viability, T/C (second compound 10 µM, first compound 0.000949 µM) of 4.1%. For the same molecule, the viability, T/C (second compound 10 µM, first compound 0.003 µM) was 2.62%, the viability, T/C [17] was 3% and the viability, T/C [18] was 3.34%. For the same molecule, the viability, T/C [19] was 2.68% and the viability, T/C [20] was 3.7%.

O=C(c1cc(Cc2n[nH]c(=O)c3ccccc23)ccc1F)N1CCN(C(=O)C2CC2)CC1 + NC1CCC(NC2CC2c2ccccc2)CC1 gave a pIC50 (second compound 0.1 µM) of less than 5.00, a pIC50 (second compound 0.316 µM) of less than 5.00 and a pIC50 (second compound 1 µM) of less than 5.00. The pIC50 (second compound 3.16 µM) was less than 5.00, the pIC50 (second compound 10 µM) was 5.09 and the viability, T/C (second compound 0.1 µM, first compound 0.0316 µM) was 114%. It also gave a viability, T/C (second compound 0.1 µM, first compound 0.1 µM) of 119%, a viability, T/C (second compound 0.1 µM, first compound 0.316 µM) of 111% and a viability, T/C (second compound 0.1 µM, first compound 1 µM) of 101%. For the same molecule, the viability, T/C (second compound 0.1 µM, first compound 3.16 µM) was 83.1%, the viability, T/C (second compound 0.1 µM, first compound 10 µM) was 71.4% and the viability, T/C (second compound 0.316 µM, first compound 0.0316 µM) was 119%. The viability, T/C (second compound 0.316 µM, first compound 0.1 µM) was 112%, the viability, T/C (second compound 0.316 µM, first compound 0.316 µM) was 115% and the viability, T/C (second compound 0.316 µM, first compound 1 µM) was 104%. It also gave a viability, T/C (second compound 0.316 µM, first compound 3.16 µM) of 87.1%, a viability, T/C (second compound 0.316 µM, first compound 10 µM) of 72.6% and a viability, T/C (second compound 1 µM, first compound 0.0316 µM) of 115%. It also gave a viability, T/C (second compound 1 µM, first compound 0.1 µM) of 113%, a viability, T/C (second compound 1 µM, first compound 0.316 µM) of 104% and a viability, T/C (second compound 1 µM, first compound 1 µM) of 92.9%. The viability, T/C (second compound 1 µM, first compound 3.16 µM) was 76.6%, the viability, T/C (second compound 1 µM, first compound 10 µM) was 62.3% and the viability, T/C (second compound 3.16 µM, first compound 0.0316 µM) was 99.3%. It also gave a viability, T/C (second compound 3.16 µM, first compound 0.1 µM) of 99.3%, a viability, T/C (second compound 3.16 µM, first compound 0.316 µM) of 100% and a viability, T/C (second compound 3.16 µM, first compound 1 µM) of 91.8%. For the same molecule, the viability, T/C (second compound 3.16 µM, first compound 3.16 µM) was 79.3%, the viability, T/C (second compound 3.16 µM, first compound 10 µM) was 57.3% and the viability, T/C (second compound 10 µM, first compound 0.0316 µM) was 79.8%. The viability, T/C (second compound 10 µM, first compound 0.1 µM) was 82.7%, the viability, T/C (second compound 10 µM, first compound 0.316 µM) was 88.4% and the viability, T/C (second compound 10 µM, first compound 1 µM) was 81.7%. It also gave a viability, T/C (second compound 10 µM, first compound 3.16 µM) of 67.2% and a viability, T/C (second compound 10 µM, first compound 10 µM) of 46.3%.

Nc1ccccc1NC(=O)c1ccc(CNC(=O)OCc2cccnc2)cc1 + NC1CCC(NC2CC2c2ccccc2)CC1 gave a pIC50 (second compound 0.1 µM) of 5.78, a pIC50 (second compound 0.316 µM) of 5.81 and a pIC50 (second compound 1 µM) of 5.81. For the same molecule, the pIC50 (second compound 3.16 µM) was 5.89, the pIC50 (second compound 10 µM) was 6.12 and the viability, T/C [1] was 115%. For the same molecule, the viability, T/C [2] was 121%, the viability, T/C [3] was 113% and the viability, T/C [4] was 110%. It also gave a viability, T/C (second compound 0.1 µM, first compound 0.949 µM) of 80.9%, a viability, T/C (second compound 0.1 µM, first compound 3 µM) of 17.7% and a viability, T/C [5] of 123%. It also gave a viability, T/C [6] of 121%, a viability, T/C [7] of 119% and a viability, T/C [8] of 109%. It also gave a viability, T/C (second compound 0.316 µM, first compound 0.949 µM) of 74.2%, a viability, T/C (second compound 0.316 µM, first compound 3 µM) of 17.2% and a viability, T/C [9] of 116%. It also gave a viability, T/C [10] of 116%, a viability, T/C [11] of 112% and a viability, T/C [12] of 103%. For the same molecule, the viability, T/C (second compound 1 µM, first compound 0.949 µM) was 74%, the viability, T/C (second compound 1 µM, first compound 3 µM) was 16.7% and the viability, T/C [13] was 107%. It also gave a viability, T/C [14] of 105%, a viability, T/C [15] of 103% and a viability, T/C [16] of 93.6%. For the same molecule, the viability, T/C (second compound 3.16 µM, first compound 0.949 µM) was 62%, the viability, T/C (second compound 3.16 µM, first compound 3 µM) was 15.1% and the viability, T/C [17] was 85.5%. The viability, T/C [18] was 82.7%, the viability, T/C [19] was 86.1% and the viability, T/C [20] was 78.1%. The viability, T/C (second compound 10 µM, first compound 0.949 µM) was 43% and the viability, T/C (second compound 10 µM, first compound 3 µM) was 9.91%.
